# Reference: patent US20040009170A1, “Alpha-melanocyte stimulating hormone peptides protection in organ transplantation” (priority 2002, published 2004)
# Legend:
# [1] = test system: donor cardiac grafts (Brown Norway) transplanted into recipient (Lewis) rats; assay: Heterotopic heart transplantation in rats: allograft survival; type: in vivo, rat
# Text: Adult inbred Brown Norway (donor) and Lewis (recipient) male rats, weighing 200-300 g were used in this study (Charles River, Calco, Italy). Animals were maintained at the animal care facilities of the Department of Hepatology, Ospedale Maggiore di Milano, Italy, under standard temperature, humidity, and time-regulated light conditions. Water and food were provided ad libitum. All animals received care in compliance with the Principles of Laboratory Animal Care, formulated by the National Society of Medical Research, and the Guide for the Care and Use of Laboratory Animals, prepared by the National Academy of Sciences and published by the National Institutes of Health (NIH Publication No. 8623, revised 1985).
# Before transplantation, animals were anesthetized with an intraperitoneal injection of 125-mg/kg ketamine. During anesthesia, heart rate, ventilation rate, and temperature were closely monitored. Donor cardiac grafts (Brown Norway) were transplanted into the abdominal cavity of the recipient (Lewis) rats using the technique described by Ono and Lindsey. […] Graft function was monitored by palpation through the abdominal wall twice daily. […]
# Statistical analysis was performed using SigmaStat statistical software (Jandel Scientific GmbH, Germany). Values are expressed as mean±SEM. […] Difference in median graft survival time was evaluated using the Mann-Whitney Rank Sum Test. […]
# [2] = test system: heart grafts (Brown Norway into Lewis rats); assay: Histopathological evaluation and ED1 immunohistochemistry of heart grafts; type: in vivo, rat
# Description: Experiments were performed to determine whether NDP-α-MSH treatment prolongs allograft survival. For this purpose, NDP-α-MSH or saline was administered from the time of transplantation until spontaneous rejection. In such experiments (n=7), rats were sacrificed when there was loss of palpable contractile activity of the graft. Studies were performed focusing on the influence of NDP-α-MSH on graft histopathology and transcripts involved in inflammation and rejection. For these studies, rats (n=6) were sacrificed 1 or 4 days after transplantation. NDP-α-MSH or saline was administered from day 0 until the sacrifice.
# Heart grafts, removed from rats on day 1, 4, or at the time of rejection, were sectioned coronally. Two sections were snap-frozen in liquid nitrogen and stored at −80° C. for RNA extraction and RT-PCR assays. One section was fixed in 10% buffered formalin and paraffin-embedded for light microscopy examination.
# Histopathological evaluation was then performed. Three μm coronal sections of heart grafts were stained with hematoxylin and eosin. Histopathological lesions were scored by two blinded observers using a 5-point scale according to combined assessments of edema (absent, perivascular/mild interstitial, subendocardial, diffuse interstitial, massive); inflammatory cell infiltration (absent, perivascular, subendocardial, diffuse interstitial, massive), and myocytolysis (absent, focal, massive): 0=minimum damage, 1+=mild damage, 2+=moderate damage, 3+=severe damage, and 4+=maximum damage.
# Analysis of graft infiltrating monocytes/macrophages was performed through immunohistochemical detection of ED1-positive cells. Sections were stained using the peroxidase-antiperoxidase (PAP) technique, after incubation with mouse anti-rat ED 1 or control antibody (Santa Cruz Biotech, Santa Cruz, Calif., USA). Slides were counterstained with hematoxylin and eosin.
# Statistical analysis was performed using SigmaStat statistical software (Jandel Scientific GmbH, Germany). Values are expressed as mean±SEM. Unpaired Student's t test was used to compare differences between values in histological scores. Difference in median graft survival time was evaluated using the Mann-Whitney Rank Sum Test. A probability value<0.05 was considered statistically significant.
# [3] = Plasma nitrite (NO2-) determination after heart transplantation (Griess); type: in vivo, rat; conditions: all intervals (day 1, day 4, rejection)
# Description: Plasma was separated by centrifugation, aliquoted, and stored at −80° C.
# Nitric oxide determinations were performed. Specifically, plasma nitrite concentration was determined at times of sacrifice as a measure of nitric oxide release. Nitrates (NO3^−) were converted into nitrites (NO2^−) by treatment of serum with nitrate reductase (Boehringer Mannheim Italia SpA, Milan, Italy). After enzymatic reduction, samples were mixed with equal amounts of Griess reagent (sulfanilamide 1%, napthlethylenediamide 0.1% in phosphoric acid 0.25%). Samples were incubated at room temperature for 10 min and absorbency was measured at 540 nm using a microplate automatic reader.
# [4] = depending upon the assay employed; cited from earlier work
# proteolytic enzymes = conditions: cited from earlier work
# [5] = 4 days after transplantation, vs untreated
# [6] = day 1 after transplantation, vs untreated
substance,measurement,setting,value
Nle^4DPhe^7-α-MSH [NDP-α-MSH],Median graft survival,"[1]; 100 μg i.p. every 12 h from 1 h before transplantation until rejection, no immunosuppression, untreated 6 days, p<0.001",10 days
same,"Graft survival time, range","[1]; 100 μg i.p. every 12 h until rejection, untreated range 6-8",9 to 11 days
same,ED1-positive cells infiltrating the graft,[2]; [5],fewer and dispersed
same,Inflammation and edema,[2]; [5],milder and mostly restricted to the subendocardial region
same,Histopathological score of heart grafts,"[2]; 4 days after transplantation, untreated 10.8±0.80, p<0.01",7.0±0.64
same,"Histology of rejected hearts, treated vs untreated",[2]; at time of rejection,no significant differences
same,Inflammatory cell infiltration,[2]; [6],much less
same,Intragraft edema,[2]; [6],milder and generally restricted to the perivascular spaces
same,Histopathological score of heart grafts,"[2]; day 1 after transplantation, mean±SEM, untreated 8.7±0.25, p<0.001",3.0±0.90
same,Increases in plasma NO2- concentration vs untreated,[3],significantly lower
same,Activity relative to the natural molecule,[4],10- to 1000 times
same,Inactivation by proteolytic enzymes,proteolytic enzymes,resistant
